Experimental data as given in patent US6271384A, “Self-assembled taxo-diterpenoid nanostructures” (The Scripps Research Institute, priority 1998, dated 2001).
Structures can show the parent of a compound that is named as a salt. Values belong to the molecule of their own block, whether it stands above or below them.

Assays:
[1] = Stability measurements of taxol-2'-MPT by HPLC (solid state and aqueous media); assay type: physicochemical
Procedure: Due to a difference in retention time using our standard HPLC conditions (see FIG. 1) and differing ultraviolet absorption maxima (l280 /l254 =1.6 for 2 and 0.3 for 1), the stability of 2 was easily assayed by HPLC (FIG. 1). […] In phosphate buffered saline (PBS) or ammonium acetate-phosphate buffer systems of pH 6.0 to 7.3, 2 is stable at 25° C. for over 21 days. Taxol-2'-MPT (2) is, however, unstable in 5% HCl (pH 1.1) and brine.
Under these conditions 20% of total is recovered. More particularly, Taxol-2'-MPT (2) was dissolved in the aqueous system with the aid of sonication for five minutes. Aliquots were then removed at the times shown and partitioned into methylene chloride to quench the reaction. Samples were then analyzed using a Waters Maxima HPLC instrument equipped with an autoinjector (3.9×300 mm C18 column equipped with a precolumn. The flow rate was 1.5 mL/minute. The eluent gradient A-B extended over 30 minutes. "A" was 80% 80 mM ammonium acetate, pH 6.0. "B" was 100% methanol. An ultraviolet diode array detector was employed. The ratio of compound 2 (Rf 16.2 min.) to taxol (compound 1, Rf 16.8 min.) remaining was determined from the relative areas of the peaks after normalization with previously determined calibration curves.

[2] = Kinetics of taxol release / breakdown in plasma (HPLC); assay type: in vitro ADME, human; conditions: methylene chloride extraction, 25° C.
[3] = Procedure: The solubility and partition coefficient data for 2 and taxol were determined using an HPLC method.
Solubility was found by forming a solution in water with the aid of sonication for five minutes, centrifugation of the samples, and injection of the supernatant. The values reported were normalized using calibration curves constructed for both compounds by preparing known concentrations in the range 1×10^-6 to 1×10^-3 M in methylene chloride and subjecting to HPLC analysis under the same conditions. […] Partition coefficients were determined by dissolving the compound in the organic phase, shaking the resulting solution with water for ten minutes, and analyzing each phase by HPLC as above.

[4] = Self-assembly: optical density at 340 nm, light scattering and TEM; assay type: physicochemical
Text: Transmission electron microscopy (TEM) confirmed the presence of supramolecular structures in these solutions. […] It is likely that the long term stability of these solutions is due, at least in part, to stabilization provided by this structured environment.

tubulin = assay: Microtubule (tubulin) polymerization-depolymerization measurements; assay type: biochemical; conditions: for suppression of calcium chloride promoted depolymerization: 10^-6 M, CaCl2 0.25 mM, 1.0 mM GTP, 37° C.
Procedure: Tubulin polymerization-depolymerization measurements are illustrate in FIG. 3. Negative controls are shown with triangles; positive taxol controls are shown with diamonds; and taxol-2'-MPT, i.e., compound 2 is shown with dots.
More particularly, measurement were performed in 96 well plates at 37° C. following the protocol of R. Merlock and W. Wrasidlo (Analytical Biochemistry 1993, in press). Calcium chloride addition is indicated by the arrow. In each case, 1.0 mM GTP was used to promote the initial polymerization of tubulin. Negative control employed tubulin (1.0 mg/mL) alone, CaCl2 (0.25 mM) added after 20 minutes. Positive taxol control employed tubulin (1.0 mg/mL) with taxol (10^-6 M) and CaCl2 (0.25 mM) added after 20 minutes. The experimental taxol-2'-MPTemployed tubulin (1.0 mg/mL) with taxol-2'-MPT (10^-6) and CaCl2 (0.25 mM) added after 20 minutes. Turbidity was measured as optical density at 340 nm using a microplate reader (Molecular Devices Thermomax).

serum protein = assay: Displacement of the MPT group by serum protein and dialysis of the protein:taxol intermediate
Text: (§1) However, the release of taxol from taxol-2'-MPT can also be catalyzed by serum protein and by proteins having nucleophilic groups. […] Dialysis of the protein:taxol intermediate indicates a dissociation period of hours or days. Displacement of the MPT group by serum proteins seems to be specific for such serum proteins. […] The precise nature of the bonding between the protein and taxol has not been characterized. Scheme 2 illustrates alternative pathways for MPT release.

immunoglobulins = assay: Displacement of the MPT group by immunoglobulins
Text: as §1

serum albumen = assay: Displacement of the MPT group by serum albumen
Text: as §1

non-serum proteins = assay: Displacement of the MPT group by non-serum proteins; conditions: tested non-serum proteins
Text: as §1

[5] = test system: leukemia, ovarian, lung, and breast carcinoma cells; assay: Cytotoxicity against a cell line panel (XTT)
[6] = test system: A549 non-small cell lung adenocarcinoma xenograft; assay: Efficacy in lung tumor xenograft nude mouse model
human leukemia = assay: Cytotoxicity, human leukemia (XTT); conditions: 72 hours
cervical carcinoma = assay: Cytotoxicity, cervical carcinoma (XTT); conditions: 72 hours
metastatic melanoma = assay: Cytotoxicity, metastatic melanoma (XTT); conditions: 72 hours

- stability in 5% HCl ([1]; 5% HCl (pH 1.1)): unstable
- stability in brine ([1]; brine): unstable
- stability in phosphate buffered saline or ammonium acetate-phosphate buffer ([1]; pH 6.0 to 7.3, 25° C.): over 21 days
- stability in aqueous media at physiological pH and ion strength ([1]; physiological pH and ion strength): essentially completely stable
- time to complete conversion of 2 into taxol in plasma [2]: ≤ 10 min
- degradation during solubility and partition studies [3]: No degradation
- critical concentration (exponential increase in optical density; critical aggregation concentration) ([4]; OD at 340 nm): 400 µM
- diameter of helical fibrillar structures ([4]; TEM): ca. 80 Å
- helical twist ([4]; TEM): about 7
- length of helical fibrillar structures ([4]; TEM): up to 800 Å
- concentration above which buffered solutions exhibit haze and diffuse scattering ([4]; buffered solutions): greater than 1×10^-3 M
- conversion to taxol in assay buffer (tubulin; buffered aqueous environment of this assay): not converted to taxol
- dissociation period of protein:taxol intermediate (serum protein; dialysis): hours or days
- displacement of MPT group by immunoglobulins (immunoglobulins): particularly effective
- displacement of MPT group by serum albumen (serum albumen): particularly effective
- displacement of MPT group by non-serum proteins (non-serum proteins): seemed to lack this activity
- conversion to taxol in vivo ([6]; inferred from xenograft results): converted rapidly to taxol in vivo
Structure (SMILES): CC(=O)O[C@H]1C(=O)[C@@]2(C)[C@H]([C@H](OC(=O)c3ccccc3)[C@]3(O)C[C@H](OC(=O)[C@H](Oc4cccc[n+]4C)[C@@H](NC(=O)c4ccccc4)c4ccccc4)C(C)=C1C3(C)C)[C@]1(OC(C)=O)CO[C@@H]1C[C@@H]2O [Compound 2, Taxol-2'-MPT (methylpyridinium tosylate)]
- stability in most aqueous media ([1]; most aqueous media): remarkably stable compound in most aqueous media
- taxol release in aqueous solutions ([1]; sterile water, pH 6.2 phosphate buffered saline or 5% dextrose, 25° C., 11 minutes): no taxol release is observed over a period of 11 minutes
- solubility in aqueous systems relative to clinically relevant dosages [3]: higher than the clinically relevant dosages (3 to 30 mM)
- water solubility relative to taxol [3]: significantly more soluble in water than the parent taxol
- appearance of water solutions ([4]; water, all concentrations examined): optically clear at all concentrations examined
- suppression of calcium chloride promoted depolymerization (tubulin): not by taxol-2'-MPT
- microtubule polymerization-depolymerization profile (tubulin; compared with GTP-saline controls and taxol): very similar to GTP-saline controls and drastically different from taxol
- binding to tubulin (tubulin; inferred from polymerization assay): does not appear to bind to tubulin in the manner of taxol
- displacement of MPT group / formation of protein:taxol intermediate (serum protein; contacted with serum protein): observed to displace its MPT group and form a protein:taxol intermediate
- cytotoxicity (discussion statement) [5]: lack of cytotoxicity
- differential cytotoxicity profile ([5]; 2 compared with taxol): similar, although some differences were noted
- control of tumor growth ([6]; I.P. day 1,3, and 7, 2 23.9 mg/kg, taxol 18.0 mg/kg, preliminary data): at least comparable to that of taxol

Structure (SMILES): CC(=O)O[C@H]1C(=O)[C@@]2(C)[C@H]([C@H](OC(=O)c3ccccc3)[C@]3(O)C[C@H](OC(=O)[C@H](O)[C@@H](NC(=O)c4ccccc4)c4ccccc4)C(C)=C1C3(C)C)[C@]1(OC(C)=O)CO[C@@H]1C[C@@H]2O [Taxol, taxol]
- suppression of calcium chloride promoted depolymerization (tubulin): suppressed by taxol
- cytotoxicity level, human leukemia (human leukemia): Extremely high cytotoxicity levels
- cytotoxicity level, cervical carcinoma (cervical carcinoma): Extremely high cytotoxicity levels
- cytotoxicity level, metastatic melanoma (metastatic melanoma): Extremely high cytotoxicity levels
